Test results reported in publication PMC6855144, “Examination of the Glycine Betaine-Dependent Methylotrophic Methanogenesis Pathway: Insights Into Anaerobic Quaternary Amine Methylotrophy” (Frontiers in Microbiology, 2019).

Target: T1, MV8460 (MtgB) (Methanolobus vulcani, UniProt A0A7Z8KPC2)
T1 construct: gene FKV42_08460
T1 sequence (A0A7Z8KPC2 1-475): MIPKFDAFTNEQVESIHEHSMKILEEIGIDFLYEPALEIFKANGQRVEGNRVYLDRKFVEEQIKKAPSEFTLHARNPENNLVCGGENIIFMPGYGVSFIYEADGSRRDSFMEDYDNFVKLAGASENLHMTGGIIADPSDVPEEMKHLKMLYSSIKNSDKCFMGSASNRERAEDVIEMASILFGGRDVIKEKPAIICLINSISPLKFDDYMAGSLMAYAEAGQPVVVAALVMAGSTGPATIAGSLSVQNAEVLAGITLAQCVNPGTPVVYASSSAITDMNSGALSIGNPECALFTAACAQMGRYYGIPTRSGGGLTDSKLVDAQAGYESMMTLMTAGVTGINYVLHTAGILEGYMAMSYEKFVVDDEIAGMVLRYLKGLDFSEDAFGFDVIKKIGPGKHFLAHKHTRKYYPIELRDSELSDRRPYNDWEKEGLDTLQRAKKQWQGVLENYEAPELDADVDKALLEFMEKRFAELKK
Test: UV-vis, methylation of free cob(I)alamin at […] nm
Assay type: biochemical
Details: methyl donor 50 mM; co-substrate cob(I)alamin; 37 °C; anoxic

With `C[N+](C)(C)CC(=O)[O-]` [GB, glycine betaine] the “UV-vis, methylation of free cob(I)alamin at 540 nm” value was “We detected methylation of free cob(I)alamin by MV8460 using GB as the methyl donor”.
